Data taken from ChEMBL document CHEMBL3588775, “Synthesis and pharmacological evaluation of N-benzyl substituted 4-bromo-2,5-dimethoxyphenethylamines as 5-HT2A/2C partial agonists” (Bioorg Med Chem, 2015).

Key:
[1] = biological target: T1, Serotonin 2 receptors; 5-HT2a & 5-HT2c (Homo sapiens) (UniProt P28223+P28335); assay: Selectivity for 5-HT2A receptor (unknown origin) over 5-HT2C receptor (unknown origin) by PDSP assay
[2] = biological target: T2, 5-hydroxytryptamine receptor 2A (Homo sapiens, UniProt P28223); assay: Binding affinity to 5-HT2A receptor (unknown origin) by PDSP assay
[3] = biological target: T3, 5-hydroxytryptamine receptor 2C (Homo sapiens, UniProt P28335); assay: Binding affinity to 5-HT2C receptor (unknown origin) by PDSP assay
T3 sequence (P28335 whole entry): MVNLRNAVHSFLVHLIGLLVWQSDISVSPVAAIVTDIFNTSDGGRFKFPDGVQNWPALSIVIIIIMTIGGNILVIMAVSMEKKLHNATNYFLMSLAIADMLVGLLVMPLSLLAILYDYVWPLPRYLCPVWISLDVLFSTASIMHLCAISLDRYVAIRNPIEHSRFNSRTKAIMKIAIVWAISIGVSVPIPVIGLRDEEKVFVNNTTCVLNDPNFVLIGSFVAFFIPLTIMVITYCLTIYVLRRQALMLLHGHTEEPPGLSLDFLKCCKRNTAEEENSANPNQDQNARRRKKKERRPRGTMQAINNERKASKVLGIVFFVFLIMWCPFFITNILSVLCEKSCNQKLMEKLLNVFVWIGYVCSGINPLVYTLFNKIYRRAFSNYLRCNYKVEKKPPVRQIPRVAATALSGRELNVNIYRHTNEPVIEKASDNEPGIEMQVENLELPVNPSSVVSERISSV

[4] = biological target: T2, 5-hydroxytryptamine receptor 2A; assay: Partial agonist activity at human 5-HT2A receptor expressed in HEK293 cells preincubated for 1 hr at 37 degC followed by incubated for 15 mins at room temperature by IP-One assay relative to 5-HT; type: cell-based
[5] = biological target: T3, 5-hydroxytryptamine receptor 2C; assay: Partial agonist activity at human 5-HT2C receptor expressed in HEK293 cells preincubated for 1 hr at 37 degC followed by incubated for 15 mins at room temperature by IP-One assay; type: cell-based
[6] = biological target: T4, 5-hydroxytryptamine receptor 2C (Homo sapiens) (UniProt P28335); assay: Partial agonist activity at human 5-HT2C receptor expressed in HEK293 cells preincubated for 1 hr at 37 degC followed by incubated for 15 mins at room temperature by IP-One assay relative to 5-HT; type: cell-based
T4 sequence (whole entry): T3 sequence (P28335 whole entry)

[7] = Selectivity for human 5-HT2A receptor over rat 5-HT2C receptor by PDSP assay
[8] = biological target: T1, Serotonin 2 receptors; 5-HT2a & 5-HT2c (Homo sapiens); assay: Selectivity for human 5-HT2A receptor over human 5-HT2C receptor by IP-One assay
[9] = biological target: T2, 5-hydroxytryptamine receptor 2A
[10] = biological target: T2, 5-hydroxytryptamine receptor 2A; assay: Displacement of [3H]-Ketanserin from human 5-HT2A receptor by PDSP assay
[11] = biological target: T3, 5-hydroxytryptamine receptor 2C; assay: Partial agonist activity at human 5-HT2C receptor expressed in human tsA201 cells after 30 mins by inositol phosphate turnover assay; type: functional, cell-based
[12] = biological target: T2, 5-hydroxytryptamine receptor 2A; assay: Partial agonist activity at human 5-HT2A receptor expressed in human tsA201 cells after 30 mins by inositol phosphate turnover assay; type: functional, cell-based
[13] = biological target: T1, Serotonin 2 receptors; 5-HT2a & 5-HT2c (Homo sapiens); assay: Selectivity for human 5-HT2A receptor over human 5-HT2C receptor by inositol phosphate turnover assay; type: functional
[14] = biological target: T2, 5-hydroxytryptamine receptor 2A; assay: Partial agonist activity at human 5-HT2A receptor expressed in human tsA201 cells after 30 mins by inositol phosphate turnover assay relative to 5-HT; type: functional, cell-based
[15] = biological target: T5, 5-hydroxytryptamine receptor 2C (Rattus norvegicus, UniProt P08909); assay: Displacement of [3H]-Mesulergine from rat 5-HT2C receptor by PDSP assay
T5 sequence (P08909 whole entry): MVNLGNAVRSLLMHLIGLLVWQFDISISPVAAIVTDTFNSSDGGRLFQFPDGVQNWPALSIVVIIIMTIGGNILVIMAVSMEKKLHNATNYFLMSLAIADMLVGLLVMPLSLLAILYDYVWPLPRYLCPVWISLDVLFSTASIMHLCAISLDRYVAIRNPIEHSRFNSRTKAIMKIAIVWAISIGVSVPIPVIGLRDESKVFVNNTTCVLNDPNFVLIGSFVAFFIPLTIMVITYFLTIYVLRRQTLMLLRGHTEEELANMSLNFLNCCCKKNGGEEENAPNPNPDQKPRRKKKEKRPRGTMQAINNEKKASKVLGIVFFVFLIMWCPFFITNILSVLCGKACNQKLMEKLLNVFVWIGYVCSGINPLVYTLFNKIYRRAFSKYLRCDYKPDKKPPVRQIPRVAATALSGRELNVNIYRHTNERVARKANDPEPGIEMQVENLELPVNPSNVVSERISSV

[16] = biological target: T4, 5-hydroxytryptamine receptor 2C (Homo sapiens); assay: Partial agonist activity at human 5-HT2C receptor expressed in human tsA201 cells after 30 mins by inositol phosphate turnover assay relative to 5-HT; type: functional, cell-based

T1 sequence (P28223 whole entry, looked up, one chain of several): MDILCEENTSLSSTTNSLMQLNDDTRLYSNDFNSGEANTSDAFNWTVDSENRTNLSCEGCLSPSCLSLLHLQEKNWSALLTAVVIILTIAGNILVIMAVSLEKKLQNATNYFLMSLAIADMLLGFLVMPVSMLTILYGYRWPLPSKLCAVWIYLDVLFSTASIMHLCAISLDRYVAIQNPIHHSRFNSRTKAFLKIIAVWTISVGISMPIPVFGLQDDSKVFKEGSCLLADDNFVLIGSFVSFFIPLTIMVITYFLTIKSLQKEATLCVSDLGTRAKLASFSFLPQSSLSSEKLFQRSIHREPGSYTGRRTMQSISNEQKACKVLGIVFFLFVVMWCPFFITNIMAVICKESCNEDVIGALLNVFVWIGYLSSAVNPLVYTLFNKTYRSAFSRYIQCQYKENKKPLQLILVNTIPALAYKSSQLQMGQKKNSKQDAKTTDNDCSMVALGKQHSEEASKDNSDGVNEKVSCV
T2 sequence (P28223 whole entry): as the sequence (P28223 whole entry, looked up, one chain of several) above

| SMILES | Selectivity ratio [1] | Ki [2] [nM] | Ki [3] [nM] | further results |
| --- | --- | --- | --- | --- |
| COc1ccc(OC)c(CNCCc2cc(OC)c(Br)cc2OC)c1 | 2.5 | 30.9 | 77.6 |  |
| COc1cc(CCNCc2ccccn2)c(OC)cc1Br | 1.1 | 38.9 | 41.7 |  |
| COc1cc(CCNCc2cccnc2OC)c(OC)cc1Br | 0.9 | 79.4 | 70.8 |  |
| COc1cc(CCNCc2cccc(O)c2)c(OC)cc1Br | 16 | 1.35 | 20.9 |  |
| COc1cc(CC(C)N)c(OC)cc1I (configuration not stated) |  |  |  | Emax [4]: 87%; EC50 [5]: 45.7 nM; Emax [6]: 119% |
| COc1cc(CCNCc2ccccc2OC)c(OC)cc1Br |  |  |  | Selectivity ratio [7]: 100 |
| COc1cc(CCNCc2cccc3cn[nH]c23)c(OC)cc1Br | 2 | 12 | 24 |  |
| COc1cc(CCNCc2cccc(OC)c2O)c(OC)cc1Br | 32 | 0.2 | 6.31 | Selectivity ratio [8]: 457; Emax [4]: 21%; EC50 [5]: 15500 nM; Emax [6]: 52%; EC50 [9]: 33.9 nM |
| COc1cc(CCNCc2cccc3ccoc23)c(OC)cc1Br | 4.2 | 0.603 | 2.51 |  |
| COc1ccc(CNCCc2cc(OC)c(Br)cc2OC)c(OC)c1 | 1.3 | 20 | 26.9 |  |
| COc1cc(CCNCc2cccc3ncoc23)c(OC)cc1Br | 2.9 | 11 | 32.4 |  |
| COc1cc(CCNCc2ccc[nH]c2=O)c(OC)cc1Br | 1 | 123 | 120 |  |
| COc1cc(CCNCc2cccc3c2OCO3)c(OC)cc1Br |  |  |  | Ki [10]: 0.603 nM; EC50 [11]: 219 nM; EC50 [12]: 10.5 nM; Selectivity ratio [7]: 18.6; Selectivity ratio [13]: 18; Emax [14]: 71%; Ki [15]: 11.2 nM; Emax [16]: 84% |
| COc1cc(CCNCc2cccnc2)c(OC)cc1Br | 1.4 | 83.2 | 120 |  |
| COc1cc(CCNCc2cccc3c2OCC3)c(OC)cc1Br | 17 | 0.2 | 3.39 | Selectivity ratio [8]: 7.1; Emax [4]: 33%; EC50 [5]: 32.4 nM; Emax [6]: 52%; EC50 [9]: 4.57 nM |
| COc1cc(CCNCc2ccncc2)c(OC)cc1Br | 1.1 | 141 | 155 |  |
| COc1cc(CCNCc2cccc(OC)c2F)c(OC)cc1Br | 17 | 3.31 | 56.2 | Selectivity ratio [8]: 2.7; Emax [4]: 22%; EC50 [5]: 282 nM; Emax [6]: 16%; EC50 [9]: 105 nM |
| COc1cc(CCNCc2cccc3cc[nH]c23)c(OC)cc1Br | 5.1 | 12.9 | 66.1 |  |
| COc1cc(CCNCc2cccc(OC)c2OC)c(OC)cc1Br | 7.5 | 3.09 | 23.4 |  |
| COc1cc(CCNCc2cccc3ccsc23)c(OC)cc1Br | 4.5 | 1.7 | 7.76 |  |
| COc1cc(CCNCc2cccc3nc[nH]c23)c(OC)cc1Br | 1.2 | 7.76 | 9.33 |  |
| COc1cc(CCNCc2c(OC)cccc2OC)c(OC)cc1Br | 0.06 | 316 | 17.4 | Selectivity ratio [8]: 16; Emax [4]: 53%; EC50 [5]: 87100 nM; Emax [6]: 33%; EC50 [9]: 5370 nM |
| COc1cccc(CNCCc2cc(OC)c(Br)cc2OC)c1 | 11 | 0.437 | 4.68 |  |
